Measurements taken from ChEMBL document CHEMBL1201862, “PubChem BioAssay data set” (2004).
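In this assay, cells in 96-well plates receive the compound at five concentrations for 48 hours. Endpoints are linearly interpolated between the surrounding concentrations. GI50 marks 50% less growth.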 Calls of active or inactive are those of the source. Cut-off read from the data, not from the text of the source: active = GI50 up to about 1.1 µM and inactive = higher.

Columns and labels:
Test in all cases: DTP human tumour cell line panel, 48 h
TK-10 = system: TK-10
RPMI-8226 = system: RPMI-8226
IGROV-1 = system: IGROV-1
M14 = system: M14
SF-268 = system: SF-268
SNB-75 = system: SNB-75
PC-3 = system: PC-3
SF-539 = system: SF-539
CCRF-CEM = system: CCRF-CEM
T47D = system: T47D
NCI-H226 = system: NCI-H226
SK-MEL-28 = system: SK-MEL-28
SK-MEL-5 = system: SK-MEL-5
NCI-H23 = system: NCI-H23
HCT-116 = system: HCT-116
HCT-15 = system: HCT-15
KM12 = system: KM12
SR = system: SR
786-0 = system: 786-0

Structure (SMILES)	GI50 (TK-10)	GI50 (RPMI-8226)	GI50 (IGROV-1)	GI50 (M14)	GI50 (SF-268)	GI50 (SNB-75)	GI50 (PC-3)	GI50 (SF-539)	GI50 (CCRF-CEM)	GI50 (T47D)	GI50 (NCI-H226)	GI50 (SK-MEL-28)	GI50 (SK-MEL-5)	GI50 (NCI-H23)	GI50 (HCT-116)	GI50 (HCT-15)	GI50 (KM12)	GI50 (SR)	GI50 (786-0)
Cl.O=C(O)c1cccnc1	> 100 µM (inactive)	> 100 µM (inactive)	> 100 µM (inactive)	> 100 µM (inactive)	> 100 µM (inactive)	> 100 µM (inactive)	> 100 µM (inactive)	34.8 µM (inactive)	> 100 µM (inactive)	> 100 µM (inactive)	> 100 µM (inactive)	> 100 µM (inactive)	> 100 µM (inactive)	> 100 µM (inactive)	> 100 µM (inactive)	> 100 µM	> 100 µM (inactive)	> 100 µM (inactive)	> 100 µM (inactive)
C1OCC2S[C@@H]3COCO[C@@H]3C2O1 (some centres not stated)	> 100 µM (inactive)	> 100 µM (inactive)	–	> 100 µM (inactive)	> 100 µM (inactive)	> 100 µM (inactive)	–	> 100 µM (inactive)	> 100 µM (inactive)	–	> 100 µM (inactive)	> 100 µM (inactive)	> 100 µM (inactive)	> 100 µM (inactive)	> 100 µM (inactive)	> 100 µM	> 100 µM (inactive)	> 100 µM (inactive)	> 100 µM (inactive)
CSc1nc(-c2ccccc2)nc(C(C#N)C#N)n1	> 100 µM (inactive)	> 100 µM (inactive)	> 100 µM (inactive)	> 100 µM (inactive)	> 100 µM (inactive)	> 100 µM (inactive)	> 100 µM (inactive)	> 100 µM (inactive)	> 100 µM (inactive)	> 100 µM (inactive)	> 100 µM (inactive)	> 100 µM (inactive)	> 100 µM (inactive)	> 100 µM (inactive)	> 100 µM (inactive)	> 100 µM	> 100 µM (inactive)	–	> 100 µM (inactive)
Cc1ccc(Nc2nc(C)c(C(=O)CC(=O)C(=O)Nc3ccc(Cl)cc3)s2)cc1	> 100 µM (inactive)	> 100 µM (inactive)	> 100 µM (inactive)	> 100 µM (inactive)	49.5 µM (inactive)	30.9 µM (inactive)	> 100 µM (inactive)	> 100 µM (inactive)	> 100 µM (inactive)	> 100 µM (inactive)	–	> 100 µM (inactive)	> 100 µM (inactive)	> 100 µM (inactive)	> 100 µM (inactive)	> 100 µM	> 100 µM (inactive)	> 100 µM (inactive)	> 100 µM (inactive)
CC(C)=CCCc1c(C)ccc2c1C(=O)C(=O)C(C(C)C)=C2	4.41 µM (inactive)	0.839 µM (active)	9.84 µM (inactive)	4.24 µM (inactive)	5.71 µM (inactive)	9.62 µM (inactive)	–	4.27 µM (inactive)	0.661 µM (active)	–	> 22 µM (inactive)	3.87 µM (inactive)	20 µM (inactive)	3.94 µM (inactive)	3.57 µM (inactive)	3.85 µM	> 22 µM (inactive)	3.5 µM (inactive)	3.95 µM (inactive)
CCCCC1CC(c2cccc([N+](=O)[O-])c2)=NO1 (configuration not stated)	> 100 µM (inactive)	74.3 µM (inactive)	> 100 µM (inactive)	> 100 µM (inactive)	> 100 µM (inactive)	> 100 µM (inactive)	–	> 100 µM (inactive)	48.5 µM (inactive)	–	> 100 µM (inactive)	> 100 µM (inactive)	43.1 µM (inactive)	80.9 µM (inactive)	> 100 µM (inactive)	> 100 µM	> 100 µM (inactive)	> 100 µM (inactive)	> 100 µM (inactive)
C/C(=N/O)c1sc(-c2nc(C)c(/C(C)=N\O)s2)nc1C	–	> 100 µM (inactive)	> 100 µM (inactive)	> 100 µM (inactive)	> 100 µM (inactive)	31.3 µM (inactive)	–	> 100 µM (inactive)	> 100 µM (inactive)	–	> 100 µM (inactive)	> 100 µM (inactive)	> 100 µM (inactive)	> 100 µM (inactive)	> 100 µM (inactive)	> 100 µM	–	> 100 µM (inactive)	> 100 µM (inactive)
CC(C)N(C(=O)C12C3C4C1C1C2C3C41C#N)C(C)C (configuration not stated)	> 100 µM (inactive)	> 46.7 µM (inactive)	> 100 µM (inactive)	> 100 µM (inactive)	> 100 µM (inactive)	> 84.7 µM (inactive)	–	> 100 µM (inactive)	> 50 µM (inactive)	–	> 100 µM (inactive)	> 100 µM (inactive)	> 100 µM (inactive)	> 100 µM (inactive)	> 100 µM (inactive)	> 72.8 µM	> 100 µM (inactive)	20.2 µM (inactive)	> 100 µM (inactive)
